Results on 20 compounds are retold here after patent US6136830A, “Sulphonyloxadiazolones and their use as microbicides” (Bayer Aktiengesellschaft, priority 1997, dated 2000).

The structures appear in SMILES notation.

Test system in one series: not listed separately
The series can be described thus: log P by HPLC (EEC-Directive 79/831 Annex V. A8). The class given is physicochemical. To be noted: gradient method, acetonitrile/0.1% aqueous phosphoric acid. The method, then:
The log P values were determined according to EEC-Directive 79/831 Annex V. A8 by HPLC (gradient method, acetonitrile/0.1% aqueous phosphoric acid).
Regarding `Cc1ccc(C(C)C)c(Oc2noc(=O)n2S(=O)(=O)c2c(C)noc2C)c1` [Example 4], the chromatographic logP – broadly, a lipophilicity value derived from retention on a column – amounted to 4.19. Still for that read-out and setting: under `COC(=O)c1ccc(Oc2noc(=O)n2S(=O)(=O)c2c(C)noc2C)cc1` [Example 2] stands 3.07; under `Cc1ccccc1Oc1noc(=O)n1S(=O)(=O)c1c(C)noc1C` [Example 7], 3.28; under `Cc1ccc(Oc2noc(=O)n2S(=O)(=O)c2c(C)noc2C)c(C)c1` [Example 5], 3.63. Same read-out and setting: under `Cc1cccc(C)c1Oc1noc(=O)n1S(=O)(=O)c1c(C)noc1C` [Example 3] stands 3.54; under `Cc1noc(C)c1S(=O)(=O)n1c(Oc2ccc(Cl)cc2)noc1=O` [Example 8], 3.45.

In another series the test system is Phytophthora infestans. The series can be described thus: whole plant or invertebrate. The format is in vivo, Phytophthora infestans (on tomato plants). The note with it: in Solanum lycopersicum, 72 h, read-out: Efficacy in %.
As to `Cc1ccc(C)c(Oc2noc(=O)n2S(=O)(=O)c2c(N)noc2C)c1`, the pest or weed control at 50 g/ha came out at 96%. Still for that read-out and setting: the result for `Cc1ccc(Oc2noc(=O)n2S(=O)(=O)c2c(N)noc2C)cc1C` reads 95%. Still for that read-out and setting: under `Cc1ccc(Oc2noc(=O)n2S(=O)(=O)c2c(C)noc2C)c(C)c1` [drawing 40] stands 94%. Still for that read-out and setting: the result for `COC(=O)c1ccc(Oc2noc(=O)n2S(=O)(=O)c2c(C)noc2C)cc1` [drawing 39] reads 86%. Regarding `Cc1cc(C)cc(Oc2noc(=O)n2S(=O)(=O)c2c(C)noc2C)c1`, the pest or weed control at 50 g/ha came out at 96%.

For `Cc1cccc(C)c1Oc1noc(=O)n1S(=O)(=O)c1c(C)noc1C` [drawing 41], the pest or weed control at 50 g/ha was 88%.

For the compound `Cc1noc(C)c1S(=O)(=O)n1c(Oc2ccc(Cl)cc2)noc1=O` [drawing 44], the pest or weed control at 50 g/ha is 97%. Same read-out and setting: the result for `COc1ccc(Oc2noc(=O)n2S(=O)(=O)c2c(N)noc2C)cc1` reads 91%; that for `Cc1ccccc1Oc1noc(=O)n1S(=O)(=O)c1c(C)noc1C` [drawing 43], 94%; that for `Cc1ccc(C(C)C)c(Oc2noc(=O)n2S(=O)(=O)c2c(C)noc2C)c1` [drawing 42], 95%.

For the compound `Cc1ccc(Oc2noc(=O)n2S(=O)(=O)c2c(C)noc2C)cc1C`, the pest or weed control at 50 g/ha worked out at 95%. On the same count and under the same terms, under `Cc1ccc(C)c(Oc2noc(=O)n2S(=O)(=O)c2c(C)noc2C)c1` stands 94%. Consider `Cc1cc(C)cc(Oc2noc(=O)n2S(=O)(=O)c2c(N)noc2C)c1`, for which the pest or weed control at 50 g/ha is 95%. Still for that read-out and setting: the result for `Cc1noc(C)c1S(=O)(=O)n1c(N(C)C2CCCCC2)noc1=O` reads 85%.
